Reference: patent publication US20240067733A1, “COMPOSITIONS AND METHODS FOR TARGETING AND KILLING ALPHA-V BETA-3-POSITIVE CANCER STEM CELLS (CSCS) AND TREATING DRUG RESISTANT CANCERS” (THE REGENTS OF THE UNIVERSITY OF CALIFORNIA, priority 2017, published 2024)

Legend:
[1] = tested on: tumor-associated macrophages (TAMs); assay: Quantification of TAMs in xenograft tumor tissues; assay type: in vivo, nu/nu mice; settings: erlotinib vs vehicle, after 50 days of treatment
Method: TAMs were isolated from tumor tissues as previously described (4). Snap frozen tumor tissues were thawed, minced, and dissociated in HBSS containing collagenase IV (Sigma, C5138, 0.5 mg/mL), hyaluronidase (Sigma, H2654, 0.1 mg/mL), dispase 11 (Roche, 04942078001, 0.6 U/mL), and DNase IV (Millipore, 260913-10MU, 5 U/mL) at 37° C. for 15 minutes. Cell suspensions were filtered through 70 μm cell strainer and washed with PBS. Single cell suspensions (10^6 cells/100 μL in 5% BSA in PBS) were incubated with Mouse BD Fc Block™ (BD Biosciences, 553142, 1:50) for 10 minutes at 4° C. and fluorescently labeled antibodies, CD11b (eBioscience, 17-0112-81, 1:100), Ly-6G (eBioscience, 25-5931, 1:100), CD206 (BioRad, MCA2235PET), and MHC11 (BD Biosciences, 562928) for one hour at 4° C. Flow cytometry was performed on BD LSRFortessa™, and the ratio of TAMs (CD11b-positive, Ly-6G-negative), M1 (CD206-negative, MHC11-positive within TAMs), and M2 (non-M1 population within TAMs) in the tumor tissue was calculated using the flow cytometry analysis program FlowJo™ (Treestar).

[2] = tested on: HCC827 (β3−, GFP+, luciferase+) cells; assay: Orthotopic lung adenocarcinoma model and CTC isolation; assay type: in vivo, nu/nu mice
Method: The pre-treatment group mice were sacrificed in week 8 for CTC analysis. […] Whole blood (0.5 mL/mouse) was collected in EDTA tubes, and PBMCs including CTCs were isolated using Lymphoprep™ ([…] Technologies, 85415) and SepMate™ ([…] Technologies, 07801) following the manufacturer's protocol. Isolated cells were washed with PBS, plated on poly-L-Lysine (Sigma, P1399) coated 8-well chamber plates, fixed with 4% PFA (VWR, AA43368-9M), and stained with DAPI (Life Technologies, D1306, 1 μg/mL in 1% BSA in PBS), LM609 (5 μg/mL in 1% BSA in PBS), and a fluorescently-labeled secondary antibody (Thermo, A21235, 1:500). The cells were analyzed utilizing Nikon Eclipse C2™ confocal microscope (Nikon). CTCs were defined as DAPI and GFP double positive cells. The numbers of αvβ3-positive and -negative CTCs per mouse were counted. After sacrificing the mice, the tumor mass volume in the lungs were also measured utilizing an OV100™ fluorescence imaging system (Olympus).

[3] = tested on: PC9 (β3−) subcutaneous xenograft; assay: PC9 subcutaneous xenograft treated with erlotinib; assay type: in vivo, mice; settings: erlotinib n=1 vs vehicle n=1, measured weekly
HCC827 (β3−) xenograft = assay: Erlotinib resistant lung adenocarcinoma xenograft model (HCC827 subcutaneous); settings: erlotinib-resistant tumors vs vehicle group
Method: Briefly, HCC827 (5×10^6 tumor cells in 100 μl of RPMI) cells were subcutaneously injected to the right flank of female nu/nu mice (8-10 weeks old). Tumors were measured twice per week with calipers (tumor volume (mm 3)=length×width×width/2). […] Tumor tissues were divided into three pieces for snap freezing, freezing in OCT compound (VWR, 25608-930), or 10% formalin fixation (Fisher Scientific, 23-313095) for further analyses.
Immunohistochemical staining was performed on unstained FFPE slides according to the manufacturers recommendations for the VECTASTAIN Elite ABC HRP Kit (Vector Laboratories, PK-6100). An anti-integrin β3 antibody (Cell Signaling, 13166, 1:200) and a biotinylated goat anti-rabbit antibody (Vector Laboratories, BA-1000, 1:200) were used. The stained tissues were imaged on NanoZoomer Slide Scanning System™ (Hamamatsu), and the β3-positive area fraction with respect to tumor tissue was calculated utilizing ImageJ (MH) (5).

PC9 ErlR cells = settings: cells from erlotinib treated (ErlR) vs vehicle treated animal
Method: (§1) Cells were plated in 96-well plates, and after appropriate treatments, the cells were incubated in MTT solution (Sigma, M2128, 0.5 mg/mL in growth media) for two hours at 37° C. Then, the MTT solution was removed, and the blue crystalline precipitate in each well was dissolved in DMSO. Visible absorbance of each well at 560 nm was quantified using a microplate reader.

HCC827-ErlR = tested on: HCC827-ErlR
Method: as §1

solid tumors = settings: patients with solid tumors; cited from earlier work
integrin αvβ3 = integrin αvβ3 (Homo sapiens, UniProt P05106+P06756); settings: in vitro; cited from earlier work
Sequence of integrin αvβ3 (P06756 31-889 limits assumed): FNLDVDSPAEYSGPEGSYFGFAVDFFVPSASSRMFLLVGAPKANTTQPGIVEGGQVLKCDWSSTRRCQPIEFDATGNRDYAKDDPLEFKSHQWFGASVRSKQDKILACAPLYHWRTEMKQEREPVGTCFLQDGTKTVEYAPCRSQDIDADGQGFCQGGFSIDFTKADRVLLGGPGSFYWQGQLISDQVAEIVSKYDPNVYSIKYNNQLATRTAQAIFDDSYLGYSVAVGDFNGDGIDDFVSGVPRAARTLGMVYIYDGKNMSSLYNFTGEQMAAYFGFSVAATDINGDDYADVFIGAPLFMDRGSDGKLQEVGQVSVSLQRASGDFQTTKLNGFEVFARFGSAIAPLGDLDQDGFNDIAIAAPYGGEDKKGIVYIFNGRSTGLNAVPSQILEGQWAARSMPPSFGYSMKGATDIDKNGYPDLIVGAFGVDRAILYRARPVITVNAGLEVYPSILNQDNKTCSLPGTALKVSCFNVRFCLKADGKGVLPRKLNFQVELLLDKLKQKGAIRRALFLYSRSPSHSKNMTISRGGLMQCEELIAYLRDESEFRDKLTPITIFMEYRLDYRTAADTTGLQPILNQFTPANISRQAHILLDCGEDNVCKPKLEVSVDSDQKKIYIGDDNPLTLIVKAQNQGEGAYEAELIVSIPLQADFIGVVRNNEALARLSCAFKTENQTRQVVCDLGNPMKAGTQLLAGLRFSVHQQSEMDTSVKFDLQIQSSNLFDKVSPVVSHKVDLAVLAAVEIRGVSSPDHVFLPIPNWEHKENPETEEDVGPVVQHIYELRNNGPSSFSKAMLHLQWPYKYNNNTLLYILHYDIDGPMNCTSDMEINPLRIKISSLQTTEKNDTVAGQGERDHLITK
Sequence of integrin αvβ3 (P06756 891-1048 limits assumed): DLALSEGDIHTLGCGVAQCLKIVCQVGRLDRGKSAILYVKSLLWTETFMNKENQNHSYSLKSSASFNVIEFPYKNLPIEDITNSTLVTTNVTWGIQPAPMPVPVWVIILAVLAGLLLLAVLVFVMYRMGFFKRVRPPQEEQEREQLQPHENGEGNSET
Sequence of integrin αvβ3 (P05106 27-788): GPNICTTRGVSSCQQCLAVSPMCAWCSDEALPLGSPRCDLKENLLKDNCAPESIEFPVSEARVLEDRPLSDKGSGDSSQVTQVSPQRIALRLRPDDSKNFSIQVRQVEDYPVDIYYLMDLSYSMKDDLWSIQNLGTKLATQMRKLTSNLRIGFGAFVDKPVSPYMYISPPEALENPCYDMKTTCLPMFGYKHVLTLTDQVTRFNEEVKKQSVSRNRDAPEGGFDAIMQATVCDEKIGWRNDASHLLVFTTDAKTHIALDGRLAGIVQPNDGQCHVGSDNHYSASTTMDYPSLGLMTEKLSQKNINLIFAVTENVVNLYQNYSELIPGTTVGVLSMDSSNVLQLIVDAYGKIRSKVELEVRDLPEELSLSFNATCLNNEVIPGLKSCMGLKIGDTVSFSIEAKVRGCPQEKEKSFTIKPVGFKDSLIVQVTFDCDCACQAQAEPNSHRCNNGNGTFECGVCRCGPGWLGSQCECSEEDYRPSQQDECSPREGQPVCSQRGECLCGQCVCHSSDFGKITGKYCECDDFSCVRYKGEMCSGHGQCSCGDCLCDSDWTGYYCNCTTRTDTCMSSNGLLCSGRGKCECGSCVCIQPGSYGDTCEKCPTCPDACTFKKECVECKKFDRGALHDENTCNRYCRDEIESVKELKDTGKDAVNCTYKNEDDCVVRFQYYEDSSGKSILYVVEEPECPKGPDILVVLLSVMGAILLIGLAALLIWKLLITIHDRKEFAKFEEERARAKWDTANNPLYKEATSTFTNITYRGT

C#Cc1cccc(Nc2ncnc3cc(OCCOC)c(OCCOC)cc23)c1 [erlotinib]
number of TAMs, particularly M2 type, in tumors [1]: higher number of TAMs
number of CTCs ([2]; erlotinib for 30 days vs pre-treatment): sharp increase in the number of CTCs
αvβ3 status of CTCs ([2]; following erlotinib treatment): vast majority of the CTCs detected following erlotinib treatment were αvβ3 positive
tumor growth [3]: gained resistance
expression of integrin αvβ3 in tumors (HCC827 (β3−) xenograft): enriched in the erlotinib-resistant tumors compared to the vehicle group

C=CC(=O)Nc1cc(Nc2nccc(-c3cn(C)c4ccccc34)n2)c(OC)cc1N(C)CCN(C)C [osimertinib]
cell viability (MTT), sensitivity to EGFR inhibitor (PC9 ErlR cells): osimertinib resistant
cell viability, sensitivity to EGFR inhibitor (HCC827-ErlR): also resistant

B1: etaracizumab: a humanized and affinity-matured form of LM609 (antibody, chains of the INN, looked up, V domains shown)
VH: QVQLVESGGGVVQPGRSLRLSCAASGFTFSSYDMSWVRQAPGKGLEWVAKVSSGGGSTYYLDTVQGRFTISRDNSKNTLYLQMNSLRAEDTAVYYCARHLHGSFASWGQGTTVTVSS
VL: EIVLTQSPATLSLSPGERATLSCQASQSISNFLHWYQQRPGQAPRLLIRYRSQSISGIPARFSGSGSGTDFTLTISSLEPEDFAVYYCQQSGSWPLTFGGGTKVEIK
clinical activity (solid tumors): showed clinical activity in some patients
antibody-dependent cell mediated cytotoxicity (ADCC) (integrin αvβ3): reported to mediate antibody-dependent cell mediated cytotoxicity (ADCC) in vitro
